{
  "source": "patent US8598365B2",
  "about": "“Herbicides” (Syngenta Limited, priority 2007, dated 2013)",
  "type_in_all_cases": "in vivo",
  "key": {"Setaria faberi (SETFA) [1]": {"test_system": "Setaria faberi (SETFA)", "test": "Example A post-emergence herbicidal activity", "settings": "rate 125 g/ha, evaluated 14 or 15 days later", "method": "(§1) Seeds of a variety of test species were sown in standard soil in pots. After cultivation for one day (pre-emergence) or after 10 days cultivation (post-emergence) under controlled conditions in a glasshouse, the plants were sprayed with an aqueous spray solution derived from the formulation of the technical active ingredient in 0.6 ml acetone and 45 ml formulation solution containing 10.6% Emulsogen EL (Registry number 61791-12-6), 42.2% N-methylpyrrolidone, 42.2% dipropylene glycol monomethyl ether (Registry number 34590-94-8) and 0.2% X-77 (Registry number 11097-66-8). The test plants were then grown in a greenhouse under optimum conditions until, 14 or 15 days later for post-emergence and 19 or 20 days for pre-emergence, the test was evaluated (100=total damage to plant; 0=no damage to plant). Alopecurus myosuroides (ALOMY), Avena fatua (AVEFA), Lolium perenne (LOLPE), Setaria faberi (SETFA), Digitaria sanguinalis (DIGSA), Echinochloa crus-galli (ECHCG)"}, "[2]": {"test_system": "Digitaria sanguinalis (DIGSA)", "test": "Example A post-emergence herbicidal activity", "settings": "rate 125 g/ha, evaluated 14 or 15 days later", "method": "as §1"}, "Avena fatua (AVEFA) [3]": {"test_system": "Avena fatua (AVEFA)", "test": "Example A post-emergence herbicidal activity", "settings": "rate 125 g/ha, evaluated 14 or 15 days later", "method": "as §1"}, "Lolium perenne (LOLPE) [4]": {"test_system": "Lolium perenne (LOLPE)", "test": "Example A post-emergence herbicidal activity", "settings": "rate 125 g/ha, evaluated 14 or 15 days later", "method": "as §1"}, "[5]": {"test_system": "Echinochloa crus-galli (ECHCG)", "test": "Example A post-emergence herbicidal activity", "settings": "rate 125 g/ha, evaluated 14 or 15 days later", "method": "as §1"}, "[6]": {"test_system": "Alopecurus myosuroides (ALOMY)", "test": "Example A post-emergence herbicidal activity", "settings": "rate 125 g/ha, evaluated 14 or 15 days later", "method": "as §1"}, "Setaria faberi (SETFA) [7]": {"test_system": "Setaria faberi (SETFA)", "test": "Example A pre-emergence herbicidal activity", "settings": "rate 250 g/ha, evaluated 19 or 20 days later", "method": "as §1"}, "[8]": {"test_system": "Digitaria sanguinalis (DIGSA)", "test": "Example A pre-emergence herbicidal activity", "settings": "rate 250 g/ha, evaluated 19 or 20 days later", "method": "as §1"}, "Avena fatua (AVEFA) [9]": {"test_system": "Avena fatua (AVEFA)", "test": "Example A pre-emergence herbicidal activity", "settings": "rate 250 g/ha, evaluated 19 or 20 days later", "method": "as §1"}, "Lolium perenne (LOLPE) [10]": {"test_system": "Lolium perenne (LOLPE)", "test": "Example A pre-emergence herbicidal activity", "settings": "rate 250 g/ha, evaluated 19 or 20 days later", "method": "as §1"}, "[11]": {"test_system": "Echinochloa crus-galli (ECHCG)", "test": "Example A pre-emergence herbicidal activity", "settings": "rate 250 g/ha, evaluated 19 or 20 days later", "method": "as §1"}, "[12]": {"test_system": "Alopecurus myosuroides (ALOMY)", "test": "Example A pre-emergence herbicidal activity", "settings": "rate 250 g/ha, evaluated 19 or 20 days later", "method": "as §1"}},
  "data": [
    {"smiles": "Cc1sc(-c2ccc(Cl)cc2)nc1C1C(=O)[C@@H]2CC[C@@H](C2)C1=O", "note": "(stereo partly drawn) [Compound T17]", "values": [
      {"measurement": "Post-Emergence Activity SETFA (100=total damage to plant; 0=no damage to plant)", "setting": "Setaria faberi (SETFA) [1]", "value": 80},
      {"measurement": "Post-Emergence Activity DIGSA (100=total damage to plant; 0=no damage to plant)", "setting": "[2]", "value": 80},
      {"measurement": "Post-Emergence Activity AVEFA (100=total damage to plant; 0=no damage to plant)", "setting": "Avena fatua (AVEFA) [3]", "value": 50},
      {"measurement": "Post-Emergence Activity LOLPE (100=total damage to plant; 0=no damage to plant)", "setting": "Lolium perenne (LOLPE) [4]", "value": 40},
      {"measurement": "Post-Emergence Activity ECHCG (100=total damage to plant; 0=no damage to plant)", "setting": "[5]", "value": 90},
      {"measurement": "Post-Emergence Activity ALOMY (100=total damage to plant; 0=no damage to plant)", "setting": "[6]", "value": 70},
      {"measurement": "Pre-Emergence Activity SETFA (100=total damage to plant; 0=no damage to plant)", "setting": "Setaria faberi (SETFA) [7]", "value": 100},
      {"measurement": "Pre-Emergence Activity DIGSA (100=total damage to plant; 0=no damage to plant)", "setting": "[8]", "value": 100},
      {"measurement": "Pre-Emergence Activity AVEFA (100=total damage to plant; 0=no damage to plant)", "setting": "Avena fatua (AVEFA) [9]", "value": 100},
      {"measurement": "Pre-Emergence Activity LOLPE (100=total damage to plant; 0=no damage to plant)", "setting": "Lolium perenne (LOLPE) [10]", "value": 100},
      {"measurement": "Pre-Emergence Activity ECHCG (100=total damage to plant; 0=no damage to plant)", "setting": "[11]", "value": 100},
      {"measurement": "Pre-Emergence Activity ALOMY (100=total damage to plant; 0=no damage to plant)", "setting": "[12]", "value": 100}
    ]},
    {"smiles": "Cc1[se]c(-c2ccc(Cl)cc2)nc1C1C(=O)[C@@H]2CC[C@@H](C2)C1=O", "note": "(stereo partly drawn) [Compound T1, 3-[2-(4-chlorophenyl)-5-methylselenazol-4-yl]bicyclo[3.2.1]octane-2,4-dione]", "values": [
      {"measurement": "Post-Emergence Activity SETFA (100=total damage to plant; 0=no damage to plant)", "setting": "Setaria faberi (SETFA) [1]", "value": 90},
      {"measurement": "Post-Emergence Activity DIGSA (100=total damage to plant; 0=no damage to plant)", "setting": "[2]", "value": 80},
      {"measurement": "Post-Emergence Activity AVEFA (100=total damage to plant; 0=no damage to plant)", "setting": "Avena fatua (AVEFA) [3]", "value": 70},
      {"measurement": "Post-Emergence Activity LOLPE (100=total damage to plant; 0=no damage to plant)", "setting": "Lolium perenne (LOLPE) [4]", "value": 30},
      {"measurement": "Post-Emergence Activity ECHCG (100=total damage to plant; 0=no damage to plant)", "setting": "[5]", "value": 100},
      {"measurement": "Post-Emergence Activity ALOMY (100=total damage to plant; 0=no damage to plant)", "setting": "[6]", "value": 70},
      {"measurement": "Pre-Emergence Activity SETFA (100=total damage to plant; 0=no damage to plant)", "setting": "Setaria faberi (SETFA) [7]", "value": 70},
      {"measurement": "Pre-Emergence Activity DIGSA (100=total damage to plant; 0=no damage to plant)", "setting": "[8]", "value": 60},
      {"measurement": "Pre-Emergence Activity AVEFA (100=total damage to plant; 0=no damage to plant)", "setting": "Avena fatua (AVEFA) [9]", "value": 20},
      {"measurement": "Pre-Emergence Activity LOLPE (100=total damage to plant; 0=no damage to plant)", "setting": "Lolium perenne (LOLPE) [10]", "value": 80},
      {"measurement": "Pre-Emergence Activity ECHCG (100=total damage to plant; 0=no damage to plant)", "setting": "[11]", "value": 60},
      {"measurement": "Pre-Emergence Activity ALOMY (100=total damage to plant; 0=no damage to plant)", "setting": "[12]", "value": 60}
    ]}
  ]
}
